System: heterotopic GBM flank tumor model
Assay: Heterotopic xenograft flank tumor treatment with peptide
Type: in vivo, nude mice
Set-up: dose or concentration left out as unconfirmed
Details: flank tumors of mice intravenously administered peptide; compared with scrambled control polypeptide; FIG. 2
Method: In this Example, we tested the efficacy of the SBK2 peptide in treating primary human brain tumor xenografts. The studies were performed using an imaging dose of the SBK2 peptide probe in 3 sequential injections that were two days apart in a heterotopic GBM flank tumor model.
Human Gli36Δ5 glioblastoma cells constitutively over-express the vIII mutant forms of the EGFR gene (Tyminski E, Leroy S, Terada K, Finkelstein D M, Hyatt J L, Danks M K, Potter P M, Saeki Y, Chiocca E A (2005) Brain tumor oncolysis with replication-conditional herpes simplex virus type 1 expressing the prodrug-activating genes, CYP2B1 and secreted human intestinal carboxylesterase, in combination with cyclophosphamide and irinotecan. Cancer Res 65:6850-6857). Human LN-229 glioblastoma cells were obtained from American Type Culture Collection, Manassas, Va. Gli36Δ5 or LN-229 cells were harvested for flank implantation by trypsinization. […]
On each peptide treatment day, flank tumors were imaged using the Maestro FLEX In Vivo Imaging System. […] Tumors were measured through the skin using calipers; length, width and height of the tumors were recorded on each treatment day. On the day the animals were sacrificed, tumors were measured before removal (through the skin) and after removal.

GEGDDFNWEQVNTLTKPTSD [SBK2]
reduction in tumor volume: 50%
reduction in weight (flank tumor): 35%

Source: patent US10632179B2, “Methods and compositions for treating cancer” (Case Western Reserve University, priority 2013, dated 2020)
